This passage reports DC50 and Dmax results from patent publication US20260092061A1, “COMPOUNDS FOR TARGETED PROTEIN DEGRADATION” (Amphista Therapeutics Limited, priority 2022, published 2026).

Some results are limits rather than exact numbers.

The target in test [1] is T1, BRD9 (Homo sapiens, UniProt Q9H8M2).
T1 sequence (Q9H8M2 1-597): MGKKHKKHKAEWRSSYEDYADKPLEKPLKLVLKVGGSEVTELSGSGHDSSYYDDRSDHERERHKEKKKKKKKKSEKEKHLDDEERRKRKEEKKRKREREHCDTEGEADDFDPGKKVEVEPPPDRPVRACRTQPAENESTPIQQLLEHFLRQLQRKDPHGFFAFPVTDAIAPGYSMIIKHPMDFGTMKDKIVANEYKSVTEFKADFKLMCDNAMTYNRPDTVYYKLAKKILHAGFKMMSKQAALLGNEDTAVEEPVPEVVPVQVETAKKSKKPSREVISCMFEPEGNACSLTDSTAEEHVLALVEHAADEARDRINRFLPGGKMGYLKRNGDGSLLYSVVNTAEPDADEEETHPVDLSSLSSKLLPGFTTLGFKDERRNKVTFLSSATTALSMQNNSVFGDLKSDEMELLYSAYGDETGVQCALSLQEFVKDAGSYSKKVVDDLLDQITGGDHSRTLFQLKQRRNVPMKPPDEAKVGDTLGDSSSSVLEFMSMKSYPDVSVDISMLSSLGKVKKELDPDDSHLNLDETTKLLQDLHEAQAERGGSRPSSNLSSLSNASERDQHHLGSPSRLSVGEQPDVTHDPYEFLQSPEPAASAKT
Briefly: BRD9 degradation, HiBiT-BRD9 KI HEK293 (LgBiT) cells, NanoGlo Lytic Endpoint assay (Assay Protocol 1). The conditions noted are these: BRD9 degradation; for Dmax / Dmax at 1 µM: HEK293; for Dmax at 1 µM: 1 μM compound at 6 h of treatment, read-out: Assay 1 Dmax. It counts as cell-based. As to the method: HiBiT-BRD9 KI HEK293 (LgBiT) Cells (Promega CS3023412) were seeded at 8000 cells per well (38 μL) in sterile white bottom 384 well plates (Invitrogen 164610 or Greiner 781080) and incubated overnight at 37° C. with 5% CO2. The next day, compounds were prepared at 1000× final concentration in DMSO and diluted 1:100 in media (DMEM PAN Biotech P04-03550+10% FBS ATCC 302025). 4 μL compound was added to each well of the cell plate and incubated for 6 h at 37° C. with 5% CO2 BRD9 expression was quantified using the NanoGlo Lytic Endpoint assay (Promega N3050). The lytic buffer was equilibrated to room temperature for 10-15 min before lytic reagent was prepared by adding substrate (1:50) and LgBit protein (1:100) in lytic buffer. 40 μL lytic reagent mix was added to each well of the cel plate and plates were centrifuged briefly at ˜50g. Plates were incubated with shaking (350 RPM) for 12-24 min before reading using the LUM plus module of a BMG Pherastar FSX. Data was analysed using Dotmatics software and % BRD9 remaining was calculated by normalisation to average data from high and low control wells (DMSO treated cels and no cells respectively).

In test [2] the target is T1, BRD9. Put plainly: Degradation of BRD9 (IF), immunofluorescence in MV4-11 cells, 24 hours (Assay Protocol 2). Also noted: A suspension of MV4-11 cells (ATCC CRL-9591) was prepared; host or cells: MV4-11. The class given is cell-based. The procedure, abridged: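 % BRD9 remaining, scaled between DMSO (high) and 100 nM CFT-8634 (low) control wells, derives from mean Alexa 647 contrast in central nuclei by high-content imaging. MV4-11 cells had 24 h compound exposure at 37° C. before PFA fixation, Triton permeabilisation and anti-BRD9 E4Q3F immunostaining.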

Setting [3] is: Table 4, determined according to Assay Protocol 1, read-out: DC50^1.
[4] abbreviates: MV4-11, Table 4, BRD9 degradation, determined according to Assay Protocol 2, read-out: Dmax^2.
Where [5] appears, read: Table 4, BRD9 degradation, determined according to Assay Protocol 2, read-out: DC50^2.
Setting [6] is: Table 4, determined according to Assay Protocol 1, read-out: Dmax^1.
[7] abbreviates: Table 2, Assay Protocol 1, 6 h of treatment, read-out: Assay 1 DC50.
[8] abbreviates: MV4-11, 24 h, Table 2, BRD9 degradation (IF), Assay Protocol 2, MV4-11 cells, read-out: Assay 2 DCmax.
Setting [9] is: Table 2, BRD9 degradation (IF), Assay Protocol 2, MV4-11 cells, read-out: Assay 2 DC50.

As to `COc1cc(-c2cn(C)c(=O)c(C)c2C)cc(OC)c1CN1CC2CC1CN2C(=O)/C(C#N)=C/c1cccc(Br)n1` (mixture of isomers) [BRD9j, (E/Z)-3-(6-bromopyridin-2-yl)-2-(5-(2,6-dimethoxy-4-(1,4,5-trimethyl-6-oxo-1,6-dihydropyridin-3-yl)benzyl)-2,5-diazabicyclo[2.2.1]heptane-2-carbonyl)acrylonitrile], the DC50 at BRD9 [1] (setting [3]) and at BRD9 [2] (setting [5]) was less than 25 nM in each case. The Dmax at BRD9 [2] (setting [4]) is greater than 70%.
On to `COc1cccc(/C=C(\C#N)C(=O)N2CC3CC2CN3Cc2c(OC)cc(-c3cn(C)c(=O)c(C)c3C)cc2OC)n1` (mixture of isomers) [BRD9k, (E/Z)-2-(5-(2,6-dimethoxy-4-(1,4,5-trimethyl-6-oxo-1,6-dihydropyridin-3-yl)benzyl)-2,5-diazabicyclo[2.2.1]heptane-2-carbonyl)-3-(6-methoxypyridin-2-yl)acrylonitrile], for which the DC50 on BRD9 [1] (setting [3]) and on BRD9 [2] (setting [5]) was less than 25 nM each time. In addition, at BRD9 [2] (setting [4]), the Dmax is 50 to 70%.
On to `COc1cc(-c2cn(C)c(=O)c(C)c2C)cc(OC)c1CN1CC2CC(C1)N2C(=O)/C(C#N)=C/c1cccc(Br)n1` (mixture of isomers) [BRD9m, (E/Z)-3-(6-bromopyridin-2-yl)-2-(3-(2,6-dimethoxy-4-(1,4,5-trimethyl-6-oxo-1,6-dihydropyridin-3-yl)benzyl)-3,6-diazabicyclo[3.1.1]heptane-6-carbonyl)acrylonitrile], for which the Dmax at BRD9 [1] (setting [6]) is greater than 70%. For the same compound, the DC50 on BRD9 [1] (setting [3]) is less than 25 nM; at BRD9 [2] (setting [5]), greater than 200 nM.
With `COc1cc(-c2cn(C)c(=O)c(C)c2C)cc(OC)c1CN1C2CC1CN(C(=O)/C(C#N)=C/c1nccs1)C2` (mixture of isomers) [BRD9n, (E/Z)-2-(6-(2,6-dimethoxy-4-(1,4,5-trimethyl-6-oxo-1,6-dihydropyridin-3-yl)benzyl)-3,6-diazabicyclo[3.1.1]heptane-3-carbonyl)-3-(thiazol-2-yl)acrylonitrile], the Dmax at BRD9 [1] (setting [6]) is 50 to 70%. In addition, the 50% degradation concentration (DC50) on BRD9 [2] (setting [5]) fell in the range of 25 to 200 nM.
With `COc1cc(-c2cn(C)c(=O)c(C)c2C)cc(OC)c1CN1C2CC1CN(C(=O)/C(C#N)=C/C1(C(F)(F)F)CCC1)C2` (mixture of isomers) [BRD9p, (E/Z)-2-(6-(2,6-dimethoxy-4-(1,4,5-trimethyl-6-oxo-1,6-dihydropyridin-3-yl)benzyl)-3,6-diazabicyclo[3.1.1]heptane-3-carbonyl)-3-(1-(trifluoromethyl)cyclobutyl)acrylonitrile], the Dmax at BRD9 [1] (setting [6]) and on BRD9 [2] (setting [4]) was greater than 70% each time.
For the compound `COc1cc(-c2cn(C)c(=O)c(C)c2C)cc(OC)c1CN1CC2CCC(C1)N2C(=O)/C(C#N)=C/c1nccs1` (mixture of isomers) [BRD9q, (E/Z)-2-(3-(2,6-dimethoxy-4-(1,4,5-trimethyl-6-oxo-1,6-dihydropyridin-3-yl)benzyl)-3,8-diazabicyclo[3.2.1]octane-8-carbonyl)-3-(thiazol-2-yl)acrylonitrile], the Dmax on BRD9 [1] (setting [6]) lay within 50 to 70%. For the same compound, the DC50 at BRD9 [2] (setting [5]) is less than 25 nM.
Consider `COc1cc(-c2cn(C)c(=O)c(C)c2C)cc(OC)c1C(=O)N1CC2CC1CN2C(=O)/C(C#N)=C/C(C)(C)C` (mixture of isomers) [BRD9t, (E/Z)-2-(5-(2,6-dimethoxy-4-(1,4,5-trimethyl-6-oxo-1,6-dihydropyridin-3-yl)benzoyl)-2,6-diazabicyclo[2.2.1]heptane-2-carbonyl)-4,4-dimethylpent-2-enenitrile], for which the Dmax at BRD9 [1] (setting [6]) and on BRD9 [2] (setting [4]) was greater than 70% in each case. Also, the DC50 at BRD9 [2] (setting [5]) is greater than 200 nM.
As to `COc1cc(-c2cn(C)c(=O)c(C)c2C)cc(OC)c1CN1CC2CC1CN2C(=O)/C(C#N)=C/c1cccc(C(F)(F)F)n1` (mixture of isomers) [BRD9x, (E/Z)-2-(5-(2,6-dimethoxy-4-(1,4,5-trimethyl-6-oxo-1,6-dihydropyridin-3-yl)benzyl)-2,5-diazabicyclo[2.2.1]heptane-2-carbonyl)-3-(6-(trifluoromethyl)pyridin-2-yl)acrylonitrile], the DC50 at BRD9 [1] (setting [3]) and at BRD9 [2] (setting [5]) was less than 25 nM each time. The Dmax at BRD9 [2] (setting [4]) is greater than 70%.
On to `COc1cc(-c2cn(C)c(=O)c3cnccc23)cc(OC)c1CN1CCN(Cc2cccc3c2CCN(C(=O)/C(C#N)=C/c2nccs2)C3C)CC1` (mixture of isomers) [Compound A2, (E/Z)-2-(5-((4-(2,6-dimethoxy-4-(2-methyl-1-oxo-1,2-dihydro-2,7-naphthyridin-4-yl)benzyl)piperazin-1-yl)methyl)-1-methyl-1,2,3,4-tetrahydroisoquinoline-2-carbonyl)-3-(thiazol-2-yl)acrylonitrile], for which, on BRD9 [1] (Table 2, Assay Protocol 1), the Dmax at 1 µM lay in the range of 40 to 70%. Also, the DC50 on BRD9 [1] (setting [7]) and at BRD9 [2] (setting [9]) was less than 1.25 nM in each case. Also, on BRD9 [2] (setting [8]), the Dmax lay within 40 to 70%.
For `COc1cc(-c2cn(C)c(=O)c3cnccc23)cc(OC)c1CN1CCN(Cc2cccc3c2CCN(C(=O)/C(C#N)=C/C(C)(C)C)C3C)CC1` (mixture of isomers) [Compound A3], the Dmax at 1 µM on BRD9 [1] (Table 2, Assay Protocol 1) was in the range of 40 to 70%. Also, the half-maximal degradation concentration (DC50) on BRD9 [1] (setting [7]) and on BRD9 [2] (setting [9]) was 1.25 to 10 nM each time. For the same compound, the Dmax on BRD9 [2] (setting [8]) lay within 40 to 70%.
For `COc1cc(-c2cn(C)c(=O)c(C)c2C)cc(OC)c1CN1CC2CC1CN2Cc1cccc2c1CCN(C(=O)/C(C#N)=C/c1cccc(Br)n1)C2C` (mixture of isomers) [Compound A64, (E/Z)-3-(6-bromopyridin-2-yl)-2-(5-((5-(2,6-dimethoxy-4-(1,4,5-trimethyl-6-oxo-1,6-dihydropyridin-3-yl)benzyl)-2,5-diazabicyclo[2.2.1]heptan-2-yl)methyl)-1-methyl-1,2,3,4-tetrahydroisoquinoline-2-carbonyl)acrylonitrile], at BRD9 [1] (Table 2, Assay Protocol 1), the Dmax at 1 µM was greater than 75%. Moreover, the DC50 at BRD9 [1] (setting [7]) was in the range of 1.25 to 10 nM.
As to `COc1cc(-c2cn(C)c(=O)c(C)c2C)cc(OC)c1CN1CC2CCC(C1)N2Cc1cccc2c1CCN(C(=O)/C(C#N)=C/c1cccc(Br)n1)C2C` (mixture of isomers) [Compound B8, (E/Z)-3-(6-bromopyridin-2-yl)-2-(5-((3-(2,6-dimethoxy-4-(1,4,5-trimethyl-6-oxo-1,6-dihydropyridin-3-yl)benzyl)-3,8-diazabicyclo[3.2.1]octan-8-yl)methyl)-1-methyl-1,2,3,4-tetrahydroisoquinoline-2-carbonyl)acrylonitrile], the DC50 on BRD9 [1] (Assay protocol 1, read-out: DC50) fell in the range of 1.25 to 10 nM. For the same compound, the Dmax on BRD9 [1] (Assay protocol 1, read-out: Dmax) was in the range of 40 to 70%.
On to `COc1cc(-c2cn(C)c(=O)c3cnccc23)cc(OC)c1CN1CC2CC1CN2Cc1cccc2c1CCN(C(=O)/C(C#N)=C/C(C)(C)C)C2C` (single isomer, unassigned) [Compound A39, (E/Z)-2-(5-((5-(2,6-dimethoxy-4-(2-methyl-1-oxo-1,2-dihydro-2,7-naphthyridin-4-yl)benzyl)-2,5-diazabicyclo[2.2.1]heptan-2-yl)methyl)-1-methyl-1,2,3,4-tetrahydroisoquinoline-2-carbonyl)-4,4-dimethylpent-2-enenitrile], for which, on BRD9 [1] (Table 2, Assay Protocol 1), the Dmax at 1 µM is 40 to 70%. For the same compound, the DC50 at BRD9 [1] (setting [7]) lay in the range of 1.25 to 10 nM.
As for `COc1cc(-c2cn(C)c(=O)c(C)c2C)cc(OC)c1CN1CCN(Cc2cccc3c2CCN(C(=O)/C(C#N)=C/c2ccn(C)n2)C3C)CC1` (stereo not shown) [Compound A8, (E)-2-(5-((4-(2,6-dimethoxy-4-(1,4,5-trimethyl-6-oxo-1,6-dihydropyridin-3-yl)benzyl)piperazin-1-yl)methyl)-1-methyl-1,2,3,4-tetrahydroisoquinoline-2-carbonyl)-3-(1-methyl-1H-pyrazol-3-yl)acrylonitrile], the Dmax at 1 µM at BRD9 [1] (Table 2, Assay Protocol 1) is 40 to 70%. Further, the DC50 at BRD9 [1] (setting [7]) was in the range of 10 to 25 nM.
